In US20260207718A1, “METHODS FOR TREATING LATE ONSET POMPE DISEASE IN PEDIATRIC PATIENTS” (Amicus Therapeutics, Inc., priority 2022, published 2026):
Each block holds one substance with its values, some of them ahead of it.

Columns and labels:
[1] = tested on: adult subjects with late-onset Pompe disease (LOPD); settings: in vivo
[2] = tested on: subjects with late-onset Pompe disease (LOPD); settings: cited from earlier work
Gaa KO mice [3] = experiment: Single fiber analysis (LAMP1/LC3) of muscle fibers from Gaa KO mice; format: in vivo
From the text: FIG. 17 depicts co-immunofluorescent staining of LAMP1 (green) (see for example, “B”) and LC3 (red) (see, for example, “A”) in single fibers isolated from the white gastrocnemius of Gaa KO mice treated with a vehicle, alglucosidase alfa, or ATB200. “C” depicts clearance of autophagic debris and absence of enlarged lysosome. A minimum of 30 fibers were examined from each animal.
As a result, a significant portion of muscle fibers analyzed (36-60%) from ATB200-treated mice appeared normal or near-normal.

Gaa KO mice [4] = experiment: Co-administration of ATB200 and miglustat in Gaa KO mice (tissue glycogen, LAMP1, LC3, dysferlin); format: in vivo; settings: FIG. 15B
Experimental: The therapeutic effects of ATB200 and miglustat were evaluated and compared against those of Alglucosidase alfa in Gaa KO mice. For the study, male Gaa KO (3- to 4-month old) and age-matched wild-type (WT) mice were used. Alglucosidase alfa was administered via bolus tail vein intravenous (IV) injection. In the co-administration regimen, miglustat was administered via oral gavage (PO) 30 minutes prior to the IV injection of ATB200. Treatment was given biweekly. Treated mice were sacrificed after 14 days from the last administration and various tissues were collected for further analysis. Table 11 summarizes the study design:
Tissue glycogen content in tissues samples was determined using amyloglucosidase digestion, as discussed above.
Tissue samples were also analyzed for biomarker changes following the methods discussed in: Khanna R, et al. (2012), “The pharmacological chaperone AT2220 increases recombinant human acid α-glucosidase uptake and glycogen reduction in a mouse model of Pompe disease,” Plos One 7(7): e40776; and Khanna, R et al. (2014), “The Pharmacological Chaperone AT2220 Increases the Specific Activity and Lysosomal Delivery of Mutant Acid α-Glucosidase, and Promotes Glycogen Reduction in a Transgenic Mouse Model of Pompe Disease,” PLOS ONE 9(7): e102092.

[5] = tested on: adult subjects with late-onset Pompe disease (LOPD); experiment: ATB200-03 (PROPEL) phase 3 trial; settings: for absolute decline in percent-predicted FVC: 52 weeks; for mean change in total GSGC score: baseline to week 52, overall population
[6] = tested on: LOPD population (ERT-naïve and ERT-experienced); experiment: Indirect treatment comparison, multi-level network meta regression (ML-NMR); design: species or system human; settings: base-case scenario, sensitivity analysis (RCT data only)
Experimental: Moreover, a comparison of three randomized clinical trials (LOTS: alglucosidase alfa vs placebo; COMET: avalglucosidase alfa vs alglucosidase alfa; and PROPEL: cipaglucosidase alfa/miglustat vs alglucosidase alfa) share 6 MWD and % predicted FVC as key primary or secondary endpoints. Using patient-level data from the PROPEL randomized clinical trial (RCT) plus aggregate published data from other RCTs, Phase I/II and open label extension trials, a multi-level network meta-regression was conducted, adjusting for various baseline covariates including previous ERT duration. The base case scenario had covariates resembling the PROPEL population (naïve and ERT-experienced) and analyzed 6 MWD and FVC change from baseline at 52 weeks. […]
A systematic literature review (SLR) was conducted to identify relevant published clinical studies of ERTs in LOPD. Outcomes assessed were change from baseline in 6-minute walking distance (6 MWD) (m) and in forced vital capacity (FVC; % predicted) at week 52, acknowledged by clinicians, HTA agencies and payers as key LOPD trial endpoints. […]
A base-case scenario was evaluated in which all covariates were set to the target population of the PROPEL trial. […]

pediatric LOPD patient = settings: (failed); 20 mg/kg Q2W (M)
CIMPR = CIMPR (Homo sapiens, UniProt P11717); experiment: CIMPR affinity chromatography (bound vs unbound rhGAA by GAA activity); format: binding
From the text: Multiple batches of the rhGAA according to the disclosure were produced in shake flasks and in perfusion bioreactors using CHO cell line GA-ATB200, the product of which is referred to as “ATB200.” Weak anion exchange (“WAX”) liquid chromatography was used to fractionate ATB200 rhGAA according to terminal phosphate and sialic acid. Elution profiles were generated by eluting the ERT with increasing amount of salt. The profiles were monitored by UV (A280 nm).
To evaluate the ability of the conventional rhGAAs in MYOZYME® and LUMIZYME® to interact with the CIMPR, the two conventional rhGAA preparations were injected onto a CIMPR affinity column (which binds rhGAA having M6P groups) and the flow through collected. The bound material was eluted with a free M6 gradient. Fractions were collected in 96-well plate and GAA activity assayed by 4MU-α-glucosidase substrate. The relative amounts of unbound (flow through) and bound (M6P eluted) rhGAA were determined based on GAA activity and reported as the fraction of total enzyme. […] Indeed, only 27% of the rhGAA in MYOZYME® and 22% of the rhGAA in LUMIZYME® contained M6P that can be productive to target it to the CIMPR on muscle cells.

Chain of CIMPR (P11717 41-2491, species assumed): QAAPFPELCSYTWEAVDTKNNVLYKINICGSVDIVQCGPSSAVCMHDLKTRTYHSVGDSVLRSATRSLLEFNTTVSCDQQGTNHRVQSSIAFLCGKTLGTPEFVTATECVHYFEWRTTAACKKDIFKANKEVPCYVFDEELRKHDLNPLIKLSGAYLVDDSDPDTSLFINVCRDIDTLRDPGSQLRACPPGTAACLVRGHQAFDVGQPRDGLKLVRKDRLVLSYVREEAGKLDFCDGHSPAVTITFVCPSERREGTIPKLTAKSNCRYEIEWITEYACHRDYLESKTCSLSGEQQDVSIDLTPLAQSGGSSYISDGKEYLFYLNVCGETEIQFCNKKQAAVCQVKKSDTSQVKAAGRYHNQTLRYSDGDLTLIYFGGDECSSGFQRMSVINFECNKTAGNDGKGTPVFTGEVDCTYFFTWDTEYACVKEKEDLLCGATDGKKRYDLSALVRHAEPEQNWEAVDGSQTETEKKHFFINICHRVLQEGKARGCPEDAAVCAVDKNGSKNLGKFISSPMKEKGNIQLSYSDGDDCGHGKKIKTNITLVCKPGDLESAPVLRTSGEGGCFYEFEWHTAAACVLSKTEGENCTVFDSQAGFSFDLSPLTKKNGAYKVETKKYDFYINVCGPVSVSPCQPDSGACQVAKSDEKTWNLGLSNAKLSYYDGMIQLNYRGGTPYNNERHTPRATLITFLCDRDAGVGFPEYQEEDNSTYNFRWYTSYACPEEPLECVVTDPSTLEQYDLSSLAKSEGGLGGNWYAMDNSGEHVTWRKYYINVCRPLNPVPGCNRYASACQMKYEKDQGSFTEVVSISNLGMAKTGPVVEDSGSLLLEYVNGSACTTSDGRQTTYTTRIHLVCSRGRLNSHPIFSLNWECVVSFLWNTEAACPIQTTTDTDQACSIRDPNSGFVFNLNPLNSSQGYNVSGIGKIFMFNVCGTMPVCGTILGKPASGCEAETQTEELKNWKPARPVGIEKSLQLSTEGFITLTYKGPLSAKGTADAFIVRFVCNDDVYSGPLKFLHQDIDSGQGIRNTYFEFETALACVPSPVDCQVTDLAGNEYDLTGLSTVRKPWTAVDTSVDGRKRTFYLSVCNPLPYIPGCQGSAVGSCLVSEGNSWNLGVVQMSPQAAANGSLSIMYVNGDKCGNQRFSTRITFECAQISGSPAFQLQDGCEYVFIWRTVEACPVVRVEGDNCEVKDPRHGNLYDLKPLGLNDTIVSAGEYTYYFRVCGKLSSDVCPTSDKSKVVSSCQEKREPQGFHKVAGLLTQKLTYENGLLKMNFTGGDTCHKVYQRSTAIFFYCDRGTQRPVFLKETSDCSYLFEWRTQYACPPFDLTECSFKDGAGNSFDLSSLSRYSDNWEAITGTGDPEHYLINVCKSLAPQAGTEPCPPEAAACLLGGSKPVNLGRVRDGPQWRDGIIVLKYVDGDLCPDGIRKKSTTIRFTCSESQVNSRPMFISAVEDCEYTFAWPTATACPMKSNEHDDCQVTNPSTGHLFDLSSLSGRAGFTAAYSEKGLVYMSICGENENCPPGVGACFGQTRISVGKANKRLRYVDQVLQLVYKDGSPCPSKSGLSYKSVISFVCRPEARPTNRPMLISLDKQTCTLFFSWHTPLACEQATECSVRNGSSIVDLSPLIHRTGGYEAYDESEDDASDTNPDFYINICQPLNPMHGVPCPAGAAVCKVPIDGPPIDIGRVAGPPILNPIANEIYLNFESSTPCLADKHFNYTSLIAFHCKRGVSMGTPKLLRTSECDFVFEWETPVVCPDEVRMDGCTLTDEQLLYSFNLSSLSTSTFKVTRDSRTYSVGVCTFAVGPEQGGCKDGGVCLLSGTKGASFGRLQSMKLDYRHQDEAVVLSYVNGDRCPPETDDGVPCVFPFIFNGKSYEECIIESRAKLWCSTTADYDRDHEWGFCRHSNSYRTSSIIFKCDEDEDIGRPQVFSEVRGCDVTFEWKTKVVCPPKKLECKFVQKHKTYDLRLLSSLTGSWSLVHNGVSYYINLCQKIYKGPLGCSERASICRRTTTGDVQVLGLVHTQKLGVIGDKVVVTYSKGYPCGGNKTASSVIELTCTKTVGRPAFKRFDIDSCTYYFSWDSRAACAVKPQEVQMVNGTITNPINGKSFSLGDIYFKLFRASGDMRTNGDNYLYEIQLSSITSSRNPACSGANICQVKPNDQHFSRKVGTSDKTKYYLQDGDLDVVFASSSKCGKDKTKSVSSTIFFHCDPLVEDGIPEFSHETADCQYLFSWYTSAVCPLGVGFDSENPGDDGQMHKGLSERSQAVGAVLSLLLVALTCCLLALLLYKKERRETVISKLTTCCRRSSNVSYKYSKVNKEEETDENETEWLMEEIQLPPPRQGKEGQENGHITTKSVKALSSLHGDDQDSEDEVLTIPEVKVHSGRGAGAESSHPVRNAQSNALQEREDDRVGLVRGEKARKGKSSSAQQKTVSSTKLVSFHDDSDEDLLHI

Substance: alglucosidase alfa
participants with infusion/injection associated reactions (IARs) [1]: 26%
patients who discontinued treatment due to an adverse event [1]: 2.6%
subjects who did not show an initial improvement during treatment ([2]; 368 subjects with LOPD from published studies): > 30%
duration of improvements in initial responders ([2]; longer-term studies): approximately 2 years
Fibers with Autophagy Buildup (Gaa KO mice [3]): >90%
Fibers with Normal or Near-normal Appearance (Gaa KO mice [3]): <10%
LC3 II level (western blot) / effect on autophagy (Gaa KO mice [4]): modest
absolute decline in percent-predicted FVC ([5]; ERT switch patients): 4.0%
FVC, CFBL at Week 52 ([5]; ERT switch population): −4.0 % predicted
6MWD, CFBL at Week 52 ([5]; ERT switch population (n=95)): 0.0 m
6MWD, CFBL at Week 52 ([5]; ERT treatment naive population): 38 m
FVC, CFBL at Week 52 ([5]; ERT treatment naive population): −3.6 % predicted
6MWD, CFBL at Week 52 ([5]; ERT treatment naive population, listed as Alglucosidase alfa): +38.3 m
mean urinary Glc4 concentration ([5]; ERT-experienced patients, Week 52 (baseline 4.6 ATB200/miglustat, 7.2 alglucosidase alfa with placebo)): 9.1 mmol/mol
mean change in CK (creatine kinase) ([5]; after 52 weeks): +15.6%
mean change (SD) in MMT score for lower extremities ([5]; baseline to week 52): 0.9 (2.58)
mean change in total GSGC score [5]: worsening
mean change in total GSGC score ([5]; listed as alglucosidase alfa and placebo): 0.77 (1.8)
absolute decline in percent-predicted FVC ([5]; combined population): 4.0%
mean change of urine Hex-4 ([5]; combined population, after 52 weeks): +11.0%
6MWD, CFBL at Week 52 ([5]; overall ERT switch and ERT naïve population): 7 m
6MWD, CFBL at Week 52 ([5]; overall ERT switch and ERT naïve population, listed as Alglucosidase alfa): +7.2 m
FVC, CFBL at Week 52 ([5]; overall population): −4.0 % predicted
relative effect for 6MWT and FVC [6]: numerically favourable versus placebo

rhGAA that bound to the CIMPR (CIMPR): 27%
rhGAA that did not bind to the CIMPR (fraction of total enzyme) (CIMPR): 73%
Substance: MYOZYME®: conventional rhGAA product containing alglucosidase alfa (Sanofi Genzyme)
lysosome size and autophagic buildup compared to vehicle-treated mice (Gaa KO mice [3]; FIG. 17): did not show any significant difference
6MWT (pediatric LOPD patient): 44.2 m
